How the values were obtained:
cultured HUVECs = test: Prostaglandin release from cultured HUVECs (competitive enzyme immunoassay); format: cell-based, human; conditions: ASA 10^-4 M for 1 hour
Procedure: Endothelial cells were treated with inhibitors of enzymes responsible for production of prostaglandins and nitric oxide. In each case, endothelial cells were pretreated by addition of the inhibitor to the culture medium for one hour, before the addition of blood and the TNF-provoking agonist (e.g., LPS) to the wells. Acetylsalicylic acid (ASA, aspirin), (Sigma, St. Louis, Mo.), which is an irreversible inhibitor of the cyclooxygenase enzyme, was removed after the incubation by washing the endothelial cells three times with Hanks balanced salt solution (HBSS) before adding the blood. Indomethacin and N^G -nitro-L-arginine methyl ester (L-NAME; Sigma), which are competitive inhibitors of cyclooxygenase, and nitric oxide synthase, respectively, were added to the HBSS wash solution and again directly to the blood as soon as it had been pipetted into the wells, so that the target enzyme would have no opportunity to escape inhibition. With indomethacin (which has been reported to increase TNF release from macrophages by blocking autocrine production of PGE2), controls were run in which indomethacin was added to the blood in the absence of endothelium.
Therefore, endothelial monolayers were treated with ASA (10^-4 M for 1 hour), an irreversible cyclooxygenase inhibitor. ASA attenuated the inhibitory activity, but by less than 40% of the total inhibition. […]

[1] = system: elastase release in whole blood over endothelial cell monolayer; test: Augmentation of elastase release in whole blood by HUVEC monolayer; format: cell-based, human; conditions: whole blood with endotoxin
Procedure: An assay similar to that described in Example 2 was developed for neutrophil elastase in the same plasma samples (measured as the complex between elastase, and α-1-antitrypsin) using a murine monoclonal antibody (HEL 1076) to elastase as capture and biotinylated murine monoclonal antibody (HAT 1099) as detector. The useful range of this assay was 0.05 to 5 nM complex. These antibodies were obtained by immunizing mice with human neutrophil elastase, human α-1-antitrypsin (Athens Research and Technology, Athens, Ga.) and a complex of both using the method detailed in Example 2. Antibodies were screened for their ability to react with native and complexed antigen. Antibodies were purified from ascites using protein G (Pharmacia, Piscataway, N.J.) affinity chromatography and biotinylated using NHS-LC-biotin (Pierce). In addition to the inhibition of TNF release, calmodulin also augmented elastase release similar to that observed with the endothelial cell monolayer (FIG. 1, authentic calmodulin; FIG. 2, purified endothelial cell calmodulin).
In addition, elastase release in whole blood measured as the complex of elastase with α-1 protease inhibitor (α-1 antitrypsin) was augmented by the presence of an endothelial cell monolayer as shown in FIG. 11 (n=8). […]

[2] = system: inhibitory activity of porcine aortic endothelium on TNF release in whole blood; test: TNF release in whole blood over pig aorta segments in situ; format: cell-based; conditions: ASA pretreatment of vessel wall
Procedure: (§1) To exclude the possibility that the inhibitory activity of endothelial monolayers was merely an artifact of tissue culture, experiments were performed using intact endothelium in situ in segments of porcine aorta. Normal farm pigs (Spotted Polland) weighing 30-35 kg were euthanized with pentobarbital and the thoracoabdominal aorta removed aseptically. The harvested aorta was rinsed in HBSS containing penicillin 50 IU/ml and streptomycin 50 μg/ml. The aorta was then opened longitudinally along its dorsal surface. The endothelial cell surface was left intact, or denuded mechanically by scraping gently ten times with a metal spatula. The opened aorta was then clamped into a multi-well plexiglass template device, such that the intimal surface of the aorta formed the bottom of the well. The wells were washed with HBSS and blood added and processed exactly as above for 24 well plates.
(§2) As with cultured endothelial cells, TNF release was inhibited when whole blood was incubated in the presence of an intact aortic endothelial surface as compared to an adjacent mechanically denuded segment of vessel (FIG. 21; n=6).

[3] = system: elastase release in whole blood over porcine aortic segments; test: Elastase release in whole blood over pig aorta segments in situ; format: cell-based; conditions: ASA pretreatment; intact or denuded segment
Procedure: as §1, §2

[4] = system: endothelial inhibition of LPS-induced TNF release in whole blood; test: Endothelial (HUVEC) inhibition of LPS-induced TNF release in whole blood, endothelium treated with enzyme inhibitors; format: cell-based, human
Procedure: (§3) Blood from healthy volunteers was drawn from the antecubital vein into a heparinized syringe (10 U/ml final; UpJohn, Kalamazoo, Mich.). 24-well culture plates (Costar, Cambridge, Mass.) were coated with 2% (w/v) gelatin (Sigma) and washed three times with Hanks balanced salt solution (HBSS) (Gibco BRL, Gaithersburg, Md.). Only the center eight wells were used to minimize evaporation. Then, 200 μl of blood was pipetted into each well. For comparative experiments involving endothelial cell monolayers, endothelial cells were seeded onto gelatin-coated wells at 3-5×10^5 cells per well 48 hours prior to experimentation. These wells were washed three times with HBSS and heparinized whole blood added as above. In most cases, the same plate would contain wells with and without endothelium for comparison purposes.
(§4) Test reagents suspended in HBSS (8 to 10 μl) were added to the wells immediately after the blood. Plates were incubated at 37° C. in room air/5% CO2 on an orbital shaker at 150 rpm; incubations were four hours unless otherwise noted. The blood then was transferred to microcentrifuge tubes and centrifuged at 500× g for 10 minutes. The resulting platelet-poor plasma was collected and assayed for TNF immediately, as per Example 2 or stored frozen at -70° C. until use.
Endothelial cells were treated with inhibitors of enzymes responsible for production of prostaglandins and nitric oxide. […]

[5] = system: TNF release in whole blood; test: TNF release in whole blood evoked by other agonists; format: cell-based, human; conditions: 0.3 to 1 μg/ml
Procedure: as §3, §4
In most experiments, LPS (from E. coli strain 055:B5, Difco) was used to stimulate TNF release. […]

[6] = system: LPS-induced TNF release in whole blood; test: LPS-induced TNF release in whole blood (TNF ELISA); format: cell-based, human; conditions: for inhibition of LPS-induced TNF release: 10^-6 M, added directly to whole blood
Procedure: Immunoreactive TNF was measured using a sandwich ELISA sensitive to ≈0.1 ng/ml TNF. 96-well Immulon IV microtiter plates (Dynatech, Chantilly, Va.) were coated overnight at 4° C. with a monoclonal anti-TNF antibody, TNF 1286 or TNF 1311 (5 μg/ml in TBS, 50 μl per well).
The next morning the ELISA plates were washed three times with TBS with 0.1% (v/v) Tween 20 (Sigma) and blocked for one hour with 1% BSA in TBS. Plates were then washed three times. Plasma samples were diluted 1:5 in 0.1% BSA in TBS, and 50 μl/well pipetted onto the plates and allowed to incubate at 37° C. for one hour. TNF standards were made up by addition of known amounts of recombinant human TNF-α (Upstate Biologicals Inc., Lake Placid, N.Y.) to pooled heparinized normal plasma diluted 1:5 in TBS/BSA. All samples and standards were assayed in duplicate. Plates were washed three times and biotinylated goat anti-TNF antibody or biotinylated monoclonal TNF 1289 (2 μg/ml in 0.1% BSA in TBS, 50 μl/well) was applied and incubated at 37° C. for one hour. Plates were washed three times and streptavidin-alkaline phosphatase (Gibco BRL, Grand Island, N.Y.) (0.025 μg/ml in 0.1% BSA in TBS, 50 μl/well) was applied and incubated at 37° C. for one hour. Following a final four washes, an amplified substrate (Gibco BRL) was applied according to the manufacturer's directions. Plates were read at 492 nm on a microtiter plate reader (Molecular Devices, Palo Alto, Calif.) and values obtained by comparing unknowns to a standard curve using a four-parameter fit. The useful range of this assay was 1-50 ng/ml.
as §3, §4
In most experiments, LPS (from E. coli strain 055:B5, Difco) was used to stimulate TNF release. Other agonists used were zymosan (Sigma, St. Louis, Mo.), muramyl dipeptide (Sigma), recombinant human interferon-γ (Mallinckrodt, Paris, Ky.), and recombinant human interleukin-1β (Collaborative Research, Bedford, Mass.). In some experiments, prostaglandin E2 (PGE2) and the stable prostacyclin analogue, carbacyclin (both from Cayman Chemical, Ann Arbor, Mich.) were added just before the LPS. These were dissolved as a 2.84×10^-3 M stock solution in DMSO and diluted in HBSS; buffer controls with the same concentrations of DMSO were assayed in parallel.

[7] = system: human peripheral blood mononuclear cells (PBMC); test: LPS-induced TNF production by isolated peripheral blood mononuclear cells; format: cell-based; conditions: PGE2 10^-7 M, n=4, read-out: inhibition of TNF production by isolated PBMCs
Procedure: To establish whether the inhibitory effect of the endothelium was exerted directly on monocytes or required an intermediary blood cell, human peripheral blood mononuclear cells (PBMC) were prepared from freshly drawn heparinized blood by density-gradient separation on Ficoll-Hypaque (Mono-Poly Resolving Medium, Flow Laboratories, McLean, Va.). Furmaniak-Kazmierczak, et al., "Protein S enhances C4b binding protein interaction with neutrophil," Blood 81:405-411 (1993). Isolated PBMC were washed three times with RPMI 1640 (Mediatech) and resuspended at a concentration of 3-5×10^6 cells/ml. 200 μl aliquots were added to 24-well tissue culture plates, incubated, and assayed as described with whole blood.
Mononuclear cells (4.47±0.94×10^6 /ml) isolated from fresh whole blood released TNF dose-dependently in response to LPS in a manner similar to whole blood.

[8] = system: TNF release in whole blood in response to E. coli; test: TNF release in whole blood in response to gentamicin-killed E. coli; format: cell-based, human; conditions: data not shown
Procedure: Whole gentamicin-killed E. coli were examined as another stimulus that probably evokes TNF release by several different pathways; for example, they serve as a phagocytic stimulus and also activate complement components. A single colony of E. coli serotype B7 086a61 (ATCC#33985) on an LB plate was cultured overnight in LB Medium (Difco, Detroit, Mich.). The next morning the cells were washed three times in Hanks balanced salt solution (HBSS) and then resuspended in HBSS to 5.7×10^9 cells per ml. Before addition to blood, bacteria were killed by treatment with gentamicin sulfate (Elkins-Sinn, Cherry Hill, N.J.), 500 μg/ml for one hour. TNF release assays were performed according to procedures given in Example 2.

CC(=O)Oc1ccccc1C(=O)O [ASA, Acetylsalicylic acid]
PGE2 release from cultured HUVECs after treatment (cultured HUVECs; untreated 0.93 nM, 0.2 nM is limit of detection): < 0.2 nM
prostacyclin release from cultured HUVECs after treatment (cultured HUVECs; untreated 4.0 nM): 0.26 nM
effect on endothelial augmentation of elastase release [1]: not changed
effect on TNF-inhibitory activity of aortic endothelium [2]: partially reduced
effect on stimulation of elastase release by aortic segments [3]: did not significantly alter

COC(=O)[C@@H](N)CCCN=C(N)N[N+](=O)[O-] [L-NAME, N^G -nitro-L-arginine methyl ester]
effect on endothelial inhibition of TNF release ([4]; L-NAME 10^-4 M): No reduction

CC(=O)N[C@H]1C(O)O[C@H](CO)[C@@H](O)[C@@H]1O[C@H](C)C(=O)N[C@@H](C)C(=O)N[C@H](CCC(=O)O)C(N)=O (some centres unmarked) [Muramyl dipeptide, muramyl dipeptide]
TNF release agonist activity alone [5]: weak agonists

CCCCC[C@H](O)/C=C/[C@H]1[C@H](O)CC(=O)[C@@H]1C/C=C\CCCC(=O)O [PGE2, prostaglandin E2]
inhibition of LPS-induced TNF release ([6]; no endothelial cells): almost complete suppression
inhibition at 0.1 µM ([6]; Homo sapiens, PGE2 10^-7 M, n=12, read-out: inhibition of whole-blood TNF production): 83.6 ± 2.7%
potency relative to carbacyclin (inhibition of LPS-induced TNF release) ([6]; whole blood, no endothelial cells): at least 10 fold
inhibition at 0.1 µM [7]: 63.9 ± 9.6%

CCCCC[C@H](O)/C=C/[C@@H]1[C@H]2C/C(=C/CCCC(=O)O)C[C@H]2C[C@H]1O [carbacyclin]
inhibition of LPS-induced TNF release ([6]; no endothelial cells): almost complete suppression

COc1ccc2c(c1)c(CC(=O)O)c(C)n2C(=O)c1ccc(Cl)cc1 [indomethacin, Indomethacin]
effect on LPS-induced TNF release in the absence of endothelium ([6]; indomethacin added to blood, no endothelium): marginally higher TNF release
effect on inhibitory effect of endothelial cells in suspension on TNF release ([4]; endothelial cells in suspension): did not block
effect on endothelial augmentation of elastase release [1]: not changed

Polymyxin B
effect on TNF response to LPS ([6]; whole blood, data not shown): dose-dependently antagonized
effect on TNF response to E. coli [8]: unaffected
